Article doi:10.1101/2020.11.09.375162v1 (biorxiv, 2020)
Read-outs that look alike come from different tables or passages of the source.

Experiments:
[1] = target: T1, human CB1 receptor (hCB1) (Homo sapiens, UniProt P21554); experiment: cell-based; details: read-out: cAMP Emax hCB1
[2] = target: T1, human CB1 receptor (hCB1); experiment: biochemical
[3] = target: T2, human CB2 receptor (hCB2) (Homo sapiens, UniProt P34972); experiment: cell-based; details: read-out: cAMP Emax hCB2
[4] = target: T3, mouse CB2 receptor (mCB2) (Mus musculus, UniProt P47936); experiment: cell-based
T3 sequence (P47936 whole entry): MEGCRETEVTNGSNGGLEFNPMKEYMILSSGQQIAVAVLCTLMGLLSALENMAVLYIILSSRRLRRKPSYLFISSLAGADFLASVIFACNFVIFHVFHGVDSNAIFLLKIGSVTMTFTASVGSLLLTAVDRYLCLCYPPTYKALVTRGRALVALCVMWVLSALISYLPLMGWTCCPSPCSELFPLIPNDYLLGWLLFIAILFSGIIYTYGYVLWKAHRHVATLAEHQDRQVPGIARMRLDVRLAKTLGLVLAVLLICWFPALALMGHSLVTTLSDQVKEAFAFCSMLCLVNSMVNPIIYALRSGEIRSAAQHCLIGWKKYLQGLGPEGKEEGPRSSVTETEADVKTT

[5] = target: T1, human CB1 receptor (hCB1); experiment: cell-based
[6] = target: T3, mouse CB2 receptor (mCB2); experiment: biochemical
[7] = target: T3, mouse CB2 receptor (mCB2); experiment: cell-based; details: read-out: cAMP Emax mCB2
[8] = target: T2, human CB2 receptor (hCB2); details: Gi1 activation
[9] = target: T2, human CB2 receptor (hCB2); details: GoA activation
[10] = target: T2, human CB2 receptor (hCB2); details: Gi2 activation
[11] = target: T2, human CB2 receptor (hCB2); experiment: [3H]-CP55940 competition, membranes; type: binding
[12] = target: T2, human CB2 receptor (hCB2); details: Gi3 activation
[13] = target: T3, mouse CB2 receptor (mCB2); experiment: [3H]-CP55940 competition, membranes; type: binding
[14] = target: T3, mouse CB2 receptor (mCB2); experiment: cAMP assay, CHO cells; type: cell-based
[15] = target: T1, human CB1 receptor (hCB1); experiment: [3H]-CP55940 competition, membranes; type: binding
[16] = target: T1, human CB1 receptor (hCB1); experiment: cAMP assay, CHO cells; type: cell-based; details: agonist
[17] = target: T1, human CB1 receptor (hCB1); experiment: [3H]-CP55940 competition, membranes; type: binding; remark: listed apart in the source
[18] = target: T1, human CB1 receptor (hCB1); experiment: PathHunter beta-arrestin recruitment, CHO-K1; type: cell-based
[19] = target: T3, mouse CB2 receptor (mCB2); experiment: cAMP assay, CHO cells; type: cell-based; details: agonist
[20] = target: T2, human CB2 receptor (hCB2); details: beta-arrestin1 recruitment
[21] = target: T2, human CB2 receptor (hCB2); details: beta-arrestin2 recruitment
[22] = target: T2, human CB2 receptor (hCB2); details: GoB activation
[23] = target: T2, human CB2 receptor (hCB2); experiment: PathHunter beta-arrestin recruitment, CHO-K1; type: cell-based

T1 sequence (P21554 whole entry): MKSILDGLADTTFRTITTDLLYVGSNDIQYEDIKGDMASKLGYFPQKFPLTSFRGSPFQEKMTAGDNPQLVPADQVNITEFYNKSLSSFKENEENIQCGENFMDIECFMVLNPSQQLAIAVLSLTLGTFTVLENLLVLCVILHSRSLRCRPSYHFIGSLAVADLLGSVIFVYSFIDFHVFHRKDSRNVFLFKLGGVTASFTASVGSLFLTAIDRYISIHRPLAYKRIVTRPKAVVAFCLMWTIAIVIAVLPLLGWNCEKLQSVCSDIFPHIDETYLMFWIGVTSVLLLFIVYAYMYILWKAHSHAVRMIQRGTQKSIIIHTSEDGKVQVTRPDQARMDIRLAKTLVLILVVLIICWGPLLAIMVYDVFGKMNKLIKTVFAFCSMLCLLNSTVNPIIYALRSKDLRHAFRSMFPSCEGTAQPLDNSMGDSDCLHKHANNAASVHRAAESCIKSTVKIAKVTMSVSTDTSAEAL
T2 sequence (P34972 whole entry): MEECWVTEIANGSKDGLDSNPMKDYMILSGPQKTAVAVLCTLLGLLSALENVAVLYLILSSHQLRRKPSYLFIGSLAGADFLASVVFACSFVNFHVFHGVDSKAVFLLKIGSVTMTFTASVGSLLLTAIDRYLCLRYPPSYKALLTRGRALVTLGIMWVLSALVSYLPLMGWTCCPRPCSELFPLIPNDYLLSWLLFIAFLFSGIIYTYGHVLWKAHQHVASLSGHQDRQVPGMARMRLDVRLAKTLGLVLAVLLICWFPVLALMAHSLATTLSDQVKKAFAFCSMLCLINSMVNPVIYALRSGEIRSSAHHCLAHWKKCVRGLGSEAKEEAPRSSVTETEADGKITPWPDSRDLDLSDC

`O=S(=O)(Cc1ccccc1)c1nc(N2CCC(F)(F)C2)c2nnn(Cc3ccccc3Cl)c2n1` [RO6871487] gave an Emax [1] of 9%, a Ki [2] of 4570 nM and an Emax [3] of 52%. For the same molecule, the EC50 [4] was > 10000 nM, the EC50 [5] was > 10000 nM and the Ki [6] was 6.92 nM. The Emax [7] was 24%.

`CN1CCN(c2nc(C(C)(C)C)nc3c2nnn3Cc2ccccc2Cl)CC1` [RO6844395] was tested, and the “Gi1 pEC50” value [8] was 7.855 M, the “GoA pEC50” value [9] was 7.607 M and the “Gi2 pEC50” value [10] was 7.499 M. For the same molecule, the Emax [1] was 57%, the pKi [11] was 7.67 and the “pKi hCB1” value ([2]; binder) was 5.76 M. For the same molecule, the Emax [3] was 99%, the “cAMP pEC50 mCB2” value ([4]; cAMP, agonist) was 7.30 M and the “Gi3 pEC50” value [12] was 7.994 M. The Emax [7] was 80% and the pKi [13] was 6.87.

`CC(C)(C)c1noc(-c2ccc(C3CC3)c(Cc3ccc(F)cc3)n2)n1` [RO6892033, 6-(3-tert-Butyl-1,2,4-oxadiazol-5-yl)-3-cyclopropyl-2-[(4-fluorophenyl)methyl]pyridine] was tested, and the Emax [1] was 70%, the Emax [3] was 66% and the Ki [6] was 7.59 nM. It also gave an Emax [7] of 45% and an EC50 [14] of 4.07 nM.

`CCOC(=O)[C@H](CC(C)C)NC(=O)c1ccc(C2CC2)c(Cc2ccc(F)cc2)n1` [RO6853973] was tested, and the Emax [1] was 83%, the pKi [11] was 9.45 and the Emax [3] was 45%. For the same molecule, the EC50 [4] was > 10000 nM, the pKi [15] was 8.21 and the Ki [6] was 0.676 nM. The “cAMP pEC50” value [16] was 8.12 and the Emax [7] was 23%.

`CCCCCCC(C)(C)c1cc(OC)c([C@@H]2C=C(CO)[C@@H]3C[C@H]2C3(C)C)c(OC)c1` [HU308] was tested, and the Ki [17] was > 10000 nM and the EC50 [18] was > 10000 nM.

In the case of `CCCCCCC(C)(C)c1ccc([C@@H]2C[C@H](O)CC[C@H]2CCCO)c(O)c1` [CP55940], the “cAMP pEC50” value [19] is reported as 10.17.

With `CCN1CCN(c2nc(C3CC3)nc3c2nnn3Cc2ccccc2Cl)CC1` [RO6435559] the “Gi1 pEC50” value [8] was 7.984 M, the “GoA pEC50” value [9] was 7.998 M and the “β-arrestin1 pEC50” value [20] was 8.518 M. For the same molecule, the “Gi2 pEC50” value [10] was 8.154 M, the “β-arrestin2 pEC50” value [21] was 8.131 M and the “Gi3 pEC50” value [12] was 7.941 M. The “GoB pEC50” value [22] was 7.794 M.

For `OCCSc1nc(N2CCC(F)(F)C2)c2nnn(Cc3ccccc3Cl)c2n1` [RO6878558], the Emax [1] was 20%, the pKi [11] was 6.94 and the Ki [2] was > 10000 nM. For the same molecule, the Emax [3] was 87%, the EC50 [5] was > 10000 nM and the Emax [7] was 92%.

For `CC(C)(C)c1nc(-c2cc(OCc3ccc(F)cc3)c(C3CC3)c(Cl)n2)no1` [RO6926274], the “cAMP pEC50” value [14] was < 5.

For `CN1CCCCC1Cn1cc(C(=O)c2cc([N+](=O)[O-])ccc2I)c2ccccc21` (racemic) [(rac)-AM1241], the EC50 [23] was > 10000 nM.

With `CCOC(=O)C(CC)(CC)NC(=O)c1ccc(N2CCCC2)c(OCC2CC2)n1` [RO6843766] the Emax [1] was 59%, the Ki [2] was 617 nM and the Emax [3] was 91%. It also gave an Emax [7] of 61%.
